# Where “and” joins values, the source holds several entries; their conditions need not be identical. Equal values may be shown once.
# Key:
# rat L6 myoblasts = assay: Cellular oxygen consumption rate; assay type: cell-based
# L6 myoblasts = assay: Whole-cell current clamp recording of plasma membrane potential; assay type: cell-based, rat; conditions: n = 8
# [1] = Tissue concentrations at study termination; assay type: in vivo, C57BL/6J mice; conditions: for concentration at 6 weeks: C57BL/6J, mouse, oral, 38 mg/kg per day (0.04% w/w in diet)
# [2] = tested on: β-hydroxy-acyl-CoA dehydrogenase (HAD); assay: Enzyme activity of HAD in WD-fed mice; assay type: in vivo, mouse; conditions: mice fed SHD865 in the WD
# [3] = tested on: medium-chain acyl-CoA dehydrogenase (MCAD); assay: Enzyme activity of MCAD in WD-fed mice; assay type: in vivo, mouse; conditions: mice fed SHD865 in the WD
# mice [4] = assay: Whole-body OCR by indirect calorimetry; assay type: in vivo, mouse; conditions: 40 mg/kg oral gavage
# [5] = Intrinsic clearance in human liver microsomes; assay type: in vitro ADME
# [6] = Mouse pharmacokinetics and oral bioavailability; assay type: in vivo, C57BL/6J mice; conditions: C57BL/6J, plasma, 10 mg/kg
# [7] = Rat pharmacokinetics and oral bioavailability; assay type: in vivo, Sprague-Dawley rats; conditions: Sprague-Dawley, serum
# mice [8] = assay: Dose escalation tolerability study by oral gavage; assay type: in vivo, mouse
# L6 cells = assay: Mitochondrial stress test; conditions: drug 50 μmol/L, oligomycin 1 μmol/L
# [9] = tested on: ACC, pSer79-ACC, FAS, AMPK (pThr172); assay type: in vivo, mouse; conditions: mice fed SHD865 in the WD
# C57BL/6J mice fed the WD = assay: Western diet-induced adiposity reversal study; assay type: in vivo
# C57BL/6J mouse tissue = assay: High-resolution respirometry; assay type: in vivo, C57BL/6J mice; conditions: 2 h after oral gavage of 30 mg/kg
# [10] = second cohort, versus WD-fed controls, 4–5 h fasting
smiles,measurement,setting,value
"N#CC(C#N)=NNc1ccc(OC(F)(F)F)cc1 [FCCP, carbonylcyanide p-(trifluoromethoxy)phenylhydrazone, reference compound]",EC50,"rat L6 myoblasts; read-out: EC50 (OCR), average values, dose response 0.4 to 50 μmol/L",1.2 µM
same,plasma membrane depolarization,L6 myoblasts; 10 μmol/L,4.9 ± 1.0 mV
"COc1nc2nc(C(F)(F)F)[nH]c2nc1Nc1ccc(OC(F)(F)F)cc1F [SHD865, N-[2-fluoro-4-[trifluoromethoxy]phenyl]-5-methoxy-2-[trifluoromethyl]-1H-imidazo[4,5-b]pyrazine-6-amine]",concentration at 6 weeks,[1]; brown fat,18000 ng/g
same,concentration at 6 weeks,[1]; gonadal fat,27000 ng/g
same,concentration at 6 weeks,[1]; liver,14500 ng/g and ~34 µM
same,steady-state tissue distribution,"[1]; study termination, 0.04% w/w in WD","primarily localized to adipose and liver tissue depots, with lesser exposure in quadriceps muscle, heart, and brain"
same,decrease of HAD activity versus WD-fed control,[2],12%
same,MCAD activity,[3],no treatment had any effect
same,time for respiration to return to normal,mice [4],4 h
same,increase in whole-body OCR compared with vehicle,mice [4]; first hour after treatment,up to 26%
same,microsomal CLint,[5],< 116 µL/min/mg
same,Cmax,[6],9.1 µM
same,half-life,[6],1.7 h
same,half-life,[7],1.7 h
same,adverse effects after acute oral bolus,"mice [8]; C57BL/6J mice, 1,000 mg/kg oral",no adverse effects
same,behavioral signs of distress or ill thrift,"mice [8]; mice, oral gavage 300 and 1,000 mg/kg, 24-h observation",no behavioral signs of distress or ill thrift were observed
same,effect on body (rectal) temperature,"mice [8]; mice, oral gavage 300 and 1,000 mg/kg, 24 h",no effect on body temperature was detected
same,efficacious dose relative to dose level with no observed adverse effect,"mice [8]; ∼38 mg/kg per day in diet versus 1,000 mg/kg acute oral",27 fold
same,mitochondrial respiration in the presence of oligomycin,L6 cells,increase mitochondrial respiration in the presence of the ATP synthase inhibitor oligomycin
same,"spare respiratory capacity, % of BAM15-treated cells",L6 cells,~90%
same,uncoupled respiration across concentration range,rat L6 myoblasts,maintained uncoupled respiration at a stable rate across a large concentration range
same,bioactive concentration range in vitro,rat L6 myoblasts; Fig. 1B,> 10 µmol/L
same,"increase of cellular OCR, as % of the maximal OCR induced by BAM15 and FCCP",rat L6 myoblasts; dose response 0.4 to 50 μmol/L,~90%
same,ACC expression versus WD-fed control mice,[9],lower
same,FAS expression versus WD-fed control mice,[9],lower
same,Ser79 phosphorylation of ACC,[9],trend for increased Ser79 phosphorylation of ACC
same,phosphorylation of AMPK-Thr172,[9],increased phosphorylation of AMPK-Thr172
same,fecal triglyceride levels compared with WD-fed mice,C57BL/6J mice fed the WD; 0.04% w/w in WD,did not alter fecal triglyceride levels
same,postprandial plasma cholesterol compared with pretreatment,C57BL/6J mice fed the WD; 0.04% w/w in WD,significantly lowered
same,postprandial plasma triglyceride compared with pretreatment,C57BL/6J mice fed the WD; 0.04% w/w in WD,significantly lowered
same,random-fed blood glucose compared with WD-fed controls,C57BL/6J mice fed the WD; 0.04% w/w in WD,decrease
same,random-fed insulin levels compared with WD-fed controls,C57BL/6J mice fed the WD; 0.04% w/w in WD,decrease
same,skeletal muscle triglyceride content,C57BL/6J mice fed the WD; 0.04% w/w in WD,completely normalized
same,body weight and body fat mass composition,"C57BL/6J mice fed the WD; 0.04% w/w in WD (∼38 mg/kg per day), first 2 weeks of treatment",recovered normal body weight and body fat mass composition similar to the lean chow-fed control mice
same,WD-induced fat gain (EchoMRI and terminal gonadal fat pad mass),"C57BL/6J mice fed the WD; 0.04% w/w in WD, 6 weeks",completely reversed the WD-induced fat gain
same,food intake,"C57BL/6J mice fed the WD; 0.04% w/w in WD, 6 weeks",without a decrease in food intake
same,lipid droplet accumulation in liver tissue (hematoxylin and eosin staining),"C57BL/6J mice fed the WD; 0.04% w/w in WD, 6 weeks",decreased lipid droplet accumulation
same,liver cholesterol concentrations,"C57BL/6J mice fed the WD; 0.04% w/w in WD, 6 weeks",lower than WD-fed control mice and similar to chow-fed mice
same,liver triglyceride levels,"C57BL/6J mice fed the WD; 0.04% w/w in WD, 6 weeks",between those of chow-fed and WD-fed mice without being statistically different from either group
same,blood ALT levels,"C57BL/6J mice fed the WD; 0.04% w/w in WD, 6 weeks, both cohorts",did not raise ALT levels
same,glucose tolerance (GTT at week 9),"C57BL/6J mice fed the WD; 0.04% w/w in WD, after 5 weeks of treatment",completely reversed glucose intolerance
same,"insulin levels during GTT, lower than WD-fed controls",C57BL/6J mice fed the WD; second cohort of mice,20–30%
same,hepatic triglyceride production using poloxamer 407,C57BL/6J mice fed the WD; [10],neither experiment showed a phenotype
same,triglyceride clearance by oral triglyceride tolerance test (OTTT),C57BL/6J mice fed the WD; [10],neither experiment showed a phenotype
same,plasma membrane depolarization,L6 myoblasts; 25 μmol/L,1.4 ± 0.4 mV
same,"mitochondrial activity in liver, muscle, heart, white and brown fat",C57BL/6J mouse tissue,only the liver had significantly increased mitochondrial activity

# From paper PMC10882157 (Diabetes, 2023)
